The source of these data is PubChem BioAssay (NCI).

Molecules are shown by their SMILES. Several values for one entry are separate records, joined by “and”; a condition that tells them apart may be missing. Equal entries are not always repeated.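 Exposure lasted 48 hours, with cells grown in 96-well plates and compounds tested at five concentrations. GI50 = concentration required for 50% inhibition of growth. TGI: total growth inhibition.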

Test systems include BT-549 breast; CAKI-1 renal; IGROV1 ovarian; K-562 leukemia; LOX IMVI melanoma; MDA-MB-435; RPMI-8226 leukemia; SF-268 CNS; OVCAR-3 ovarian; MCF7 breast.
Common to all, as to assay: growth of human tumour cells (NCI), 48 h

Regarding `COc1ncnn2ccc(-c3cnc4nc(C)n(Cc5nnc(C(C)F)o5)c4c3)c12` (stereo unspecified), the GI50 was 0.0585 µM in the assay with BT-549 breast; 0.0613 µM in the assay with CAKI-1 renal; 0.235 µM with IGROV1 ovarian; 0.163 µM with K-562 leukemia; 0.144 µM in the assay on LOX IMVI melanoma; 0.223 µM in the assay on MDA-MB-435. Besides, the values for the GI50 with RPMI-8226 leukemia and in the assay with SF-268 CNS were 0.201 µM and 0.526 µM, respectively. Besides, the TGI in the assay with BT-549 breast is 1.61 µM; in the assay on CAKI-1 renal, greater than 100 µM; with IGROV1 ovarian, greater than 64.3 µM; in the assay on K-562 leukemia it was greater than 100 µM; with LOX IMVI melanoma, 0.619 µM; in the assay on MDA-MB-435, greater than 100 µM. The TGI in the assay on RPMI-8226 leukemia is greater than 45.6 µM; in the assay on SF-268 CNS, greater than 80.5 µM.
`COC(=O)c1oc([N+](=O)[O-])c(-c2ccccc2)c1-c1ccccc1`: the TGI in the assay on CAKI-1 renal, in the assay with IGROV1 ovarian, in the assay on K-562 leukemia, in the assay on LOX IMVI melanoma, in the assay with OVCAR-3 ovarian and with RPMI-8226 leukemia was greater than 100 µM throughout. In addition, in the assay on SF-268 CNS, the TGI was greater than 100 µM.
`Cc1ccc(C)c(N2C(=O)C(=O)C(c3nc4ccccc4s3)C(=O)C2=O)c1`: the TGI with CAKI-1 renal, with IGROV1 ovarian, with K-562 leukemia, in the assay with LOX IMVI melanoma, in the assay on OVCAR-3 ovarian and with RPMI-8226 leukemia was greater than 100 µM in each case. This compound had a TGI in the assay on SF-268 CNS greater than 100 µM.
On to `N#CC1(C#N)C2C=CC(C3CC=CC32)C1(C#N)C#N` (stereo unspecified), for which the GI50 with CAKI-1 renal is 8.5 µM; with K-562 leukemia, 1.01 µM; in the assay on MDA-MB-435, 9.78 µM; in the assay with OVCAR-3 ovarian, 6.81 µM; in the assay on RPMI-8226 leukemia it was 8.86 µM. The TGI in the assay with CAKI-1 renal is 3.72 µM and 18.5 µM; with IGROV1 ovarian, 16.5 µM; in the assay with K-562 leukemia, 5.83 µM and 3.38 µM; with LOX IMVI melanoma, 18.6 µM; in the assay on MDA-MB-435, 18.8 µM; in the assay with OVCAR-3 ovarian it was 5.1 µM and 14.5 µM. Further, the TGI with RPMI-8226 leukemia was 4.89 µM and 21.1 µM; in the assay with SF-268 CNS it was 22.6 µM.
For the compound `COc1c(O)cc2c(c1CC=C(C)C)OC(=O)c1c(cc(O)c(CC=C(C)C)c1O)O2`, the GI50 is 4.32 µM with CAKI-1 renal; 4.14 µM with IGROV1 ovarian; 5.91 µM in the assay with K-562 leukemia; 3.53 µM with LOX IMVI melanoma; 6.48 µM in the assay with MCF7 breast; 4.11 µM in the assay with MDA-MB-435. Further, the GI50 was 3.83 µM in the assay on OVCAR-3 ovarian, 5.95 µM with RPMI-8226 leukemia and 4.26 µM in the assay with SF-268 CNS. Moreover, the TGI was 8.61 µM in the assay with CAKI-1 renal; 7.91 µM in the assay with IGROV1 ovarian; 17 µM with K-562 leukemia; 7.68 µM in the assay on LOX IMVI melanoma; 25 µM in the assay on MCF7 breast; 7.94 µM in the assay with MDA-MB-435. Also, the figures for the TGI in the assay on OVCAR-3 ovarian, in the assay on RPMI-8226 leukemia and in the assay on SF-268 CNS were 7.2 µM, 15.7 µM and 7.82 µM, respectively.
Take `OCC(O)COc1ccc(F)cc1` (stereo unspecified): the TGI in the assay on CAKI-1 renal, in the assay on IGROV1 ovarian, in the assay on K-562 leukemia, in the assay with LOX IMVI melanoma, with OVCAR-3 ovarian and with SF-268 CNS was greater than 100 µM throughout.
Regarding `C=CCC1=C2CCCCC2CCC1=O` (stereo unspecified), the TGI in the assay on CAKI-1 renal, with IGROV1 ovarian, with K-562 leukemia, in the assay with LOX IMVI melanoma, in the assay with OVCAR-3 ovarian and in the assay on RPMI-8226 leukemia was greater than 100 µM in each case. The compound further gave a TGI in the assay with SF-268 CNS greater than 100 µM.
On to `COC(=O)CCC(=O)C(CC(=O)OC)C(=O)CCC(=O)NCCc1ccccc1` (stereo unspecified), for which the TGI in the assay on CAKI-1 renal, in the assay with IGROV1 ovarian, in the assay with K-562 leukemia, in the assay with LOX IMVI melanoma, with OVCAR-3 ovarian and in the assay with RPMI-8226 leukemia was greater than 100 µM in each case. The same compound came in with a TGI with SF-268 CNS greater than 100 µM.
Turning to `CC1=CC=C2C(C)(C)CC[C@@H]3OC(=O)[C@H]1[C@]23C`, the TGI with CAKI-1 renal, in the assay on IGROV1 ovarian, in the assay with K-562 leukemia, in the assay on LOX IMVI melanoma, with OVCAR-3 ovarian and in the assay on SF-268 CNS was greater than 100 µM throughout.
On to `CC[C@H]1[C@@H](C)C=C[C@@H](C)N1S(=O)(=O)c1ccc(C)cc1`, for which the TGI in the assay on CAKI-1 renal, with K-562 leukemia, with LOX IMVI melanoma, with OVCAR-3 ovarian, in the assay on RPMI-8226 leukemia and in the assay with SF-268 CNS was greater than 100 µM throughout.
Take `CCC(CO)COC(=O)/C=C/C(=O)OCC(CC)CO` (stereo unspecified): the TGI with CAKI-1 renal, with IGROV1 ovarian, with K-562 leukemia, with LOX IMVI melanoma, in the assay on OVCAR-3 ovarian and in the assay on RPMI-8226 leukemia was greater than 100 µM in each case. Besides, the TGI in the assay on SF-268 CNS is greater than 100 µM.
In the case of `Cc1cc2c(=O)cc(-c3ccc(O)cc3)oc2c(C(=O)O)c1C`, the TGI is 69.2 µM in the assay on CAKI-1 renal; greater than 100 µM in the assay with IGROV1 ovarian; greater than 100 µM in the assay with K-562 leukemia; greater than 100 µM in the assay with LOX IMVI melanoma; greater than 100 µM in the assay with OVCAR-3 ovarian; greater than 100 µM in the assay with RPMI-8226 leukemia.
In the case of `CCOC(=O)c1sc(Nc2cc(Cl)ccc2Cl)nc1C`, the TGI in the assay with IGROV1 ovarian, in the assay with K-562 leukemia, in the assay on LOX IMVI melanoma, with OVCAR-3 ovarian, with RPMI-8226 leukemia and in the assay with SF-268 CNS was greater than 100 µM each time.
Take `O=C(O)COc1ccc2c3c1C(=O)CCC3CO2` (stereo unspecified): the TGI with CAKI-1 renal, in the assay on IGROV1 ovarian, in the assay on K-562 leukemia, in the assay on LOX IMVI melanoma, in the assay with OVCAR-3 ovarian and in the assay on RPMI-8226 leukemia was greater than 100 µM each time. In the assay with SF-268 CNS, this compound registered a TGI greater than 100 µM.
As for `CC(=O)OC1C(COC(N)=O)OC(n2c(-c3ccc(C)cc3)cc(-c3ccccc3)c(C#N)c2=O)C(OC(C)=O)C1OC(C)=O` (stereo unspecified), the TGI in the assay with CAKI-1 renal, with IGROV1 ovarian, in the assay with K-562 leukemia, with LOX IMVI melanoma, in the assay with OVCAR-3 ovarian and in the assay on RPMI-8226 leukemia was greater than 100 µM throughout. The TGI in the assay on SF-268 CNS was greater than 100 µM.
